Reference: patent publication US11414416B1, “Compounds and uses thereof” (Foghorn Therapeutics Inc., priority 2019, dated 2022)
pIC50: −log10 of the molar value.

These molecules were tested against Nanoluciferase-BRD9 fusion protein (Homo sapiens (Human), UniProt Q9H8M2) (assay: SYO1 BRD9 NanoLuc degradation assay). Conditions: Table 5A; SYO-1 cells expressing 3×FLAG-NLuc-BRD9, 6 hours; read-out: SYO1 BRD9-NanoLuc degradation IC50.
Format: cell-based
Procedure: Procedure: A stable SYO-1 cell line expressing 3×FLAG-NLuc-BRD9 was generated. On day 0 cells were seeded in 30 μL media into each well of 384-well cell culture plates. The seeding density was 8000 cells/well. […] Subsequently plates were incubated for 6 hours in a standard tissue culture incubator and equilibrated at room temperature for 15 minutes. Nanoluciferase activity was measured by adding 15 μL of freshly prepared Nano-Glo Luciferase Assay Reagent (Promega N1130), shaking the plates for 10 minutes and reading the bioluminescence using an EnVision reader.
DMSO treated cells are employed as High Control (HC) and 1 μM of a known BRD9 degrader standard treated cells are employed as Low Control (LC).

Chain of Nanoluciferase-BRD9 fusion protein (Q9H8M2 whole entry, the tested form may be a part): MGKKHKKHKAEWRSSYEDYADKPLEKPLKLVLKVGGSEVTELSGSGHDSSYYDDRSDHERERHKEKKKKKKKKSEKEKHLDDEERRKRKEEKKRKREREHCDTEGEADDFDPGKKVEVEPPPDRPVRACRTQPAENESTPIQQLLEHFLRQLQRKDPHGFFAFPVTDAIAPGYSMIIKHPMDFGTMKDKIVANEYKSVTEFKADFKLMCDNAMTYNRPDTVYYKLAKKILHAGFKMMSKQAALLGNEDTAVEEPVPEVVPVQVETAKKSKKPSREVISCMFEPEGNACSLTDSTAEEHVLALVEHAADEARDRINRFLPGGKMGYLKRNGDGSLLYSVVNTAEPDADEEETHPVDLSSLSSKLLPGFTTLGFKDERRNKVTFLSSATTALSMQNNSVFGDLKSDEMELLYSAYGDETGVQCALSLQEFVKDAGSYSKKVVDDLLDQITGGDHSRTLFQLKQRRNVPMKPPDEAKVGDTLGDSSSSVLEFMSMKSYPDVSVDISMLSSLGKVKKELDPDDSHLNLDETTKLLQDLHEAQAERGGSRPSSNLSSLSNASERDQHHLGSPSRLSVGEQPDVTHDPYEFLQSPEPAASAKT

| SMILES | DC50 [nM] |
| --- | --- |
| COc1cc(-c2cc(C)c(=O)n(C)c2)cc(OC)c1CN1CC(C(=O)NCCCCCCCCNc2cccc3c2C(=O)N(C2CCC(=O)NC2=O)C3=O)C1 (stereo not drawn) [Compound D16, 2-(2,6-dihydroxypiperidin-3-yl)-4-[(8-[[hydroxy(1-[[4-(6-hydroxy-1,5-dimethyl-1,6-dihydropyridin-3-yl)-2,6-dimethoxyphenyl]methyl]azetidin-3-yl)methyl]amino]octyl)amino]-2,3-dihydro-1H-isoindole-1,3-diol formic acid] | < 10 |
| COc1cc(-c2cn(C)c(=O)c3cnccc23)cc(OC)c1CN(C)CCOCCN1CCN(c2ccc3c(c2)C(=O)N(C2CCC(=O)NC2=O)C3=O)CC1 (stereo not drawn) [Compound D46, 5-(4-(2-(2-((2,6-dimethoxy-4-(2-methyl-1-oxo-1,2-dihydro-2,7-naphthyridin-4-yl)benzyl)(methyl)amino)ethoxy)ethyl)piperazin-1-yl)-2-(2,6-dioxopiperidin-3-yl)isoindoline-1,3-dione formic acid] | < 10 |

Same assay, conditions: Table 5B; SYO-1 cells expressing 3×FLAG-NLuc-BRD9, 6 hours; read-out: SYO1 BRD9-NanoLuc degradation IC50

| SMILES | DC50 [nM] |
| --- | --- |
| COc1cc(-c2cn(C)c(=O)c3cnccc23)cc(OC)c1CN1CC(CC(=O)N2CCC3(CC(Oc4ccc5c(c4)C(=O)N([C@H]4CCC(=O)NC4=O)C5=O)C3)C2)C1 (stereo partly drawn) [Compound D267] | 10 to 100 |
| COc1cc(-c2cc(C)c(=O)n(C)c2C)cc(OC)c1CN1CCN(c2ccc3c(c2)C(=O)N(C2CCC(=O)NC2=O)C3=O)CC1 (stereo not drawn) [Compound D343] | < 10 |
| COc1cc(-c2cn(C)c(=O)c3cnccc23)cc(OC)c1CN1CC2(C1)CN(C(=O)C#Cc1ccc3c(c1)C(=O)N(C1CCC(=O)NC1=O)C3=O)C2 (stereo not drawn) [Compound D185] | < 10 |
| COc1cc(-c2cn(C)c(=O)c3cnccc23)cc(OC)c1CN(C)CCCCCCCCNc1cccc2nc(C)n(C3CCC(=O)NC3=O)c(=O)c12 (stereo not drawn) [DD5] | 10 to 100 |
| COc1cc(-c2cc(C(F)(F)F)c(=O)n(C)c2)cc(OC)c1CN1CCC(CCN2CCN(c3ccc4c(c3)C(=O)N(C3CCC(=O)NC3=O)C4=O)CC2)CC1 (stereo not drawn) [Compound D328] | < 10 |
| COc1cc(-c2cn(C)c(=O)c3cnccc23)cc(OC)c1CN(C)CC(=O)NCCN1Cc2cc3c(cc2C1)C(=O)N(C1CCC(=O)NC1=O)C3=O (stereo not drawn) [DD6] | 10 to 100 |
| COc1cc(-c2cn(C)c(=O)c3cnccc23)cc(OC)c1CN(C)C(=O)CCCCNC1CC2(C1)CN(c1ccc3c(c1)C(=O)N(C1CCC(=O)NC1=O)C3=O)C2 (stereo not drawn) [Compound D204] | < 10 |

The remaining lines, values ahead:

| DC50 [nM] | SMILES |
| --- | --- |
| < 10 | COc1cc(-c2cn(C)c(=O)c(C)c2C)c(OC)cc1CN1CC(CN2CCC3(CC2)CN(c2ccc4c(c2)C(=O)N(C2CCC(=O)NC2=O)C4=O)C3)C1 (stereo not drawn) [Compound D354] |
| < 10 | COc1cc(-c2cn(C)c(=O)c3cnccc23)cc(OC)c1CN(C)CCCCN1CC2(CCN(c3ccc4c(c3)C(=O)N(C3CCC(=O)NC3=O)C4=O)CC2)C1 (stereo not drawn) [Compound D223] |
| < 10 | COc1cc(-c2cn(C)c(=O)c3cnccc23)cc(OC)c1CN(C)CCCn1cc(COC2CCN(c3ccc4c(c3)C(=O)N(C3CCC(=O)NC3=O)C4=O)CC2)nn1 (stereo not drawn) [Compound D287] |

Same assay, conditions: Table 5C; SYO-1 cells expressing 3×FLAG-NLuc-BRD9, 6 hours

| pIC50 | SMILES |
| --- | --- |
| > 8.00 | COc1cc(-c2cc(C)c(=O)n(C)c2)cc(OC)c1CN1CC(C#Cc2ccc3c(c2)C(=O)N(C2CCC(=O)NC2=O)C3)C1C (stereo not drawn) [Compound D453] |

Same assay, conditions: Table 5C; SYO-1 cells expressing 3×FLAG-NLuc-BRD9, 6 hours; read-out: SYO1 BRD9-NanoLuc degradation IC50

| DC50 [nM] | SMILES |
| --- | --- |
| < 10 | COc1cc(-c2cn(C)c(=O)c3cnccc23)cc(OC)c1CN1CCC2(CC1)CN(c1ccc3c(c1)C(=O)N(C1CCC(=O)NC1=O)C3=O)C2 (stereo not drawn) [Compound D373] |
| < 10 | COc1cc(-c2cc(C)c(=O)n(C)c2)cc(OC)c1CN1CCC(C#Cc2ccc3c(c2)C(=O)N(C2CCC(=O)NC2=O)C3)C1 (stereo not drawn) [Compound D442] |
| < 10 | COc1cc(-c2cn(C)c(=O)c3cnccc23)cc(OC)c1CN1CCC2(CC1)CN(c1ccc3c(c1)C(=O)N(C1CCCC(=O)NC1=O)C3=O)C2 (stereo not drawn) [Compound D388] |
| < 10 | COc1cc(-c2cn(C)c(=O)c3nn(C)cc23)cc(OC)c1CN1CCC2(CC1)CN(c1ccc3c(c1)C(=O)N(C1CCC(=O)NC1=O)C3)C2 (stereo not drawn) [Compound D421] |
| < 10 | COc1cc(-c2cc(C)c(=O)n(C)c2)cc(OC)c1CN1CC(CCc2ccc3c(c2)C(=O)N(C2CCC(=O)NC2=O)C3)C1 (stereo not drawn) [Compound D448] |
